Target: T1, recombinant HIV reverse transcriptase (HIV RTR) (Human immunodeficiency virus type 1 group M subtype B, UniProt P03366)
T1 construct: recombinant HIV reverse transcriptase (HIV RTR)
Assay: Reverse transcriptase assay (incorporation of tritiated deoxyguanosine monophosphate into acid-precipitable cDNA)
Assay type: biochemical
Details: [³H] dGTP and poly r(C)·oligo d(G)12-18 each at about Km; 37°C for 45 minutes; read-out: IC₅₀ value
Protocol: The assay measures the incorporation of tritiated deoxyguanosine monophosphate by recombinant HIV reverse transcriptase (HIV RTR) (or other RT) into acid-precipitable cDNA at the Km values of dGTP and poly r(C)·oligo d(G)₁₂₋₁₈.
Thirty µL of a reaction mixture containing equal volumes of: 500 mM Tris·HCl (pH 8.2), 300 mM MgCl₂, 1200 mM KCl, 10 mM DTT, 400 µg/mL poly r(c)·oligo d(G) [prepared by dissolving 1.5 mg (25 U) poly r(C)·oligo d(G) in 1.5 ml sterile distilled H₂O and diluting to 400 µg/ml], 0.1 µCi/µl [³H] dGTP, 160 µM dGTP, was added to 10 µl sterile distilled H₂O, 2.5 µl of potential inhibitor and 10 µL of 5 nM purified HIV RTR in tubes. The mixture was incubated at 37°C for 45 minutes.
After incubation is complete, the tubes were cooled in ice for 5 minutes. Ice-cold 13% TCA containing 10 mM NaPPi (200 µl) is added and the mixture incubated on ice for 30 minutes. The precipitated cDNA is removed by filtration using presoaked glass filters [TCA, NaPPi]. […]
The filter discs are then counted in a scintillation counter.
Under these conditions [dGTP] and poly r(C)·oligo d(G)₁₂₋₁₈ each are approximately equal to the appropriate Km value. […] Calculated IC₅₀ values for the tested compounds of this invention vary from about 12 nM to more than 300 µM, with the most preferred compounds having values of between about 30 nM and about 60 µM. […]

`C#CC1(c2ccccc2)c2cc(Cl)ccc2NC(=O)N1C` (single isomer, unassigned; (+)) [(+) optical isomer of compound 4, 6-Chloro-3,4-dihydro-3-methyl-4-phenyl-4-ethynyl-2(1H)-quinazolinone] was tested. Which IC50 did it give?
The IC50 was roughly 0.06 nM.
